O=[N+]([O-])/N=C1\NCCN1Cc1ccc(Cl)nc1
solubility (mole fraction)
Details	293.15 K	298.15 K	303.15 K	308.15 K	313.15 K	318.15 K	323.15 K	328.15 K	333.15 K
in ethanol	0.0006	0.0008	0.0009	0.0012	0.0015	0.0019	0.0025	0.003	0.0036
in ethyl acetate	0.0027	0.0029	0.0034	0.0039	0.0044	0.0053	0.0061	0.0071	0.0084
in methanol	0.0012	0.0015	0.0018	0.0023	0.0027	0.0036	0.0044	0.0054	0.0067
in methyl acetate	0.0037	0.0042	0.0048	0.0057	0.0067	0.0078	0.0092	0.0107	–
in n-butanol	0.0004	0.0005	0.0006	0.0008	0.001	0.0013	0.0017	0.0021	0.0026
in n-butyl acetate	0.0015	0.0019	0.0021	0.0027	0.0032	0.0035	0.0037	0.0041	0.0048
in n-propanol	0.0005	0.0006	0.0008	0.0011	0.0013	0.0017	0.0022	0.0028	0.0034
